Laboratory results taken from patent publication US20190298664A1, “METHOD AND KIT FOR MYOCARDIAL REPERFUSION, AND METHOD FOR ATTENUATING OR REDUCING MYOCARDIAL REPERFUSION INJURY” (Academia Sinica, priority 2018, published 2019).

What was measured:
[1] = molecular target: T1, PTP-PEST (Homo sapiens, UniProt Q05209); experiment: Thermal stability of PTP-PEST by differential scanning fluorimetry and differential scanning calorimetry; settings: in the presence of Auranofin; apo form shows a single unfolding event
T1 construct: PTP PEST Catalytic Domain construct (Amino Acid:1-300) with 6 His tag at N-terminal; 6 His (N, cleaved yes); made in house; host or cells: Sf9 insect cells (Sf9-VECL-01), Bac-to-Bac baculovirus system
T1 sequence (Q05209 1-300): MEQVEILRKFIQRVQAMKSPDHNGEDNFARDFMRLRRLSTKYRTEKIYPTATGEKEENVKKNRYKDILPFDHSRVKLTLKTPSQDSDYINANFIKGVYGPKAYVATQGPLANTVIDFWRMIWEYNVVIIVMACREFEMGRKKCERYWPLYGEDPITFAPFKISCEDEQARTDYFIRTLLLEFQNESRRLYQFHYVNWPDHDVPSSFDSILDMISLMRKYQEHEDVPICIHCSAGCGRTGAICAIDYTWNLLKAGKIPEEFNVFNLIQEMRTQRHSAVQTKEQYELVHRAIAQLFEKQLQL

[2] = tested on: I/R mice; experiment: Serum troponin I measurement in I/R mice; assay type: in vivo, mouse; settings: 2 mg/kg IP
Experimental: (§1) We anesthetized the mouse with 5% isoflurane mixed with room air until loss of sensation of pain and then maintained the mouse in anesthesia status with 2% isoflurane mixed with room air through the whole procedure. The mouse's body temperature was maintained at 37° C. by a heating pad. After the mouse was intubated, we provided artificial ventilation to the mouse with a small animal ventilator. Then the chest cavity was opened at the second intercostal space and homemade chest retractors were utilized to widen the incision. We pulled the pericardium apart carefully and exposed the left anterior descending artery (LAD). A 7-0 silk was put underneath the LAD at the position of the tip of the left auricle, a 6 mm length of PE-10 tube was put on the surface of the LAD, and then a double knot was made to occlude the blood flow of LAD. The success of ligation was confirmed by paling the anterior wall of the LV. For the reperfusion group, the LAD knot would be untied for the purpose of reperfusion after 1 hour of ischemia. For the sham operation group, all procedures were the same except for the knot that occluded the LAD flow. After the successful procedure, we left the silk in situ, closed the chest cavity and weaned the animal from the ventilator.
Before the mouse was sacrificed, blood was drawn from the facial vein. The blood was put in the room temperature for 30 minutes and then centrifuged at 4° C. for 15 minutes at 5000 rpm. After centrifuging, the serum is collected for troponin I measurement with troponin I ELISA kit (KT-469, Kamiya Biomedical Company) according to the manufacture's protocol.

[3] = tested on: I/R mice; experiment: Echocardiography (ejection fraction) in I/R mice; assay type: in vivo, mouse; settings: 2 mg/kg IP
Experimental: as §1, with “confirmed by […] anterior wall” for “confirmed by paling the anterior wall”, “the ventilator. At 1 day and 1 week post the indicated I/R episode, the mice were received echocardiography for evaluating the cardiac function. […]” for “the ventilator.”

[4] = tested on: I/R mice; experiment: Histopathology (H&E, Masson Trichrome) one week post-I/R in mice; assay type: in vivo, mouse; settings: 2 mg/kg IP; one week after I/R
From the text: as §1, with “(A) The representative echocardiographic images, (B) the quantification of ejection fraction, (C) the representative histopathologic […]) the quantification of infarct size were obtained from the mice with the indicated treatments for one week post-I/R (n=8). (E) The representative enlarged H&E stain obtained from mice one week post-I/R. The areas highlighted in yellow boxes (left panel) are shown by the enlarged view (right panel). (F) The representative Masson Trichrome stain obtained from mice one week post-I/R. The black arrows indicate the location of inflammation or fibrosis in the myocardium. I/R: I/R-mice treated with the vehicle control, I/R+A: […] treated with Auranofin. (B) and (D) **P<0.01. We anesthetized” for “We anesthetized”, “confirmed by […] anterior wall” for “confirmed by paling the anterior wall”

**Q.** What does the source list for `CC(=O)OC[C@H]1O[C@@H]([S-])[C@H](OC(C)=O)[C@@H](OC(C)=O)[C@@H]1OC(C)=O.CCP(CC)CC.[Au+]` [Auranofin, auranofin]?
**A.** Unfolding events of PTP-PEST (DSF and DSC) [1]: two unfolding events; Serum troponin I level ([2]; 4 hours post-I/R): reduced; Serum troponin I level ([2]; one day after reperfusion): lower; Cardiac ejection fraction ([3]; one day post-MI): significant improvement; Restoration of cardiac performance judged by echocardiography ([3]; one week post-MI): sustained up to one week; Fibrosis [4]: less; Infarct size (pathological study, H&E) [4]: smaller; Infiltrating inflammatory cells [4]: fewer; Myocardial thinning over the injured area [4]: a minor degree
